The values below come from US12409209B2, “Biological function regulating agent, epidermal metabolism promoting agent, fat accumulation inhibiting agent, fat decomposition promoting agent, adiponectin production promoting agent, functional food, cosmetic product, and method for producing biological function regulating agent” (NITTA GELATIN INC., priority 2020, dated 2025).

The test system of experiment [1] is fat cells differentiated from mouse-derived precursor fat cells (3T3-L1). Briefly: Eleventh test: fat accumulation in fat cells (Oil Red O). In kind it is cell-based. To be noted: positive control, final conc. 2 ug/mL; 3T3-L1 7 passages, 13 PDL. The protocol: The mouse-derived precursor fat cells (manufactured by Research Resources Bank, Resource No. JCRB 9014, Lot No. 01282009) were precultured in a culture medium (DMEM/F12 medium (passage culture, catalog No: “11330-032”, manufactured by Gibco Company, containing 10 mass % FBS, penicillin and streptomycin). Subsequently, from the medium and the cells subjected to the preculture, a cell suspension liquid containing the cells at 3×10^4 cells/mL was prepared. Further, 5 mL of the cell suspension liquid was seeded in each of 60 mm dishes (catalog No: Corning, Cat. No. 430166) (1.5×10^5 cells/dish), and cultured for 2 days under the condition of 37° C. (5 vol % CO2). […] 200 μL of the extraction liquid was transferred to a 96-well plate, and the absorbance at OD 520 nm was measured with an absorption spectrometer (trade name: “Synergy HTX” manufactured by Biotech Japan Corporation). It is evaluated that the higher the value of the absorbance at OD 520 nm, the more likely the fat accumulation is to occur in fat cells. […] The fat accumulation ratio in fat cells containing each sample, the berberine chloride solution or RO water was determined in accordance with the following calculation expression. Fat accumulation ratio (%)=[(measured value at OD 520 nm for each sample)/(measured value at OD 520 nm for blank)×100] […]

The test system is the same in experiment [2]. The experiment in a line: Third test: fat accumulation in fat cells (Oil Red O, OD 520 nm). In kind it is cell-based. To be noted: positive control, final conc. 2 μg/mL; 3T3-L1 5 passages, 9 PDL; average of three. The protocol: Specifically, the third test was conducted in accordance with the following procedure. The mouse-derived precursor fat cells (manufactured by Research Resources Bank, Resource No. JCRB 9014, Lot No. 01282009) were precultured in a culture medium (DMEM/F12 medium (passage culture, catalog No: “11330-032”, manufactured by Gibco Company, containing 10 mass % FBS, penicillin and streptomycin). Subsequently, from the medium and the cells subjected to the preculture, a cell suspension liquid containing the cells at 3×10^4 cells/mL was prepared. Further, 5 mL of the cell suspension liquid was seeded in each of 60 mm dishes (catalog No: Corning, Cat. No. 430166) (1.5×10^5 cells/dish), and cultured for 2 days under the condition of 37° C. (5 vol % CO2). […] 200 μL of the extraction liquid was transferred to a 96-well plate, and the absorbance at OD 520 nm was measured with an absorption spectrometer (trade name: “Synergy HTX” manufactured by Biotech Japan Corporation). It is evaluated that the higher the value of the absorbance at OD 520 nm, the more likely the fat accumulation is to occur in fat cells. […] The fat accumulation ratio in fat cells containing each sample, the berberine chloride solution or RO water was determined in accordance with the following calculation expression. […]

For `COc1ccc2cc3[n+](cc2c1OC)CCc1cc2c(cc1-3)OCO2` [Berberine chloride, berberine chloride], the “Fat accumulation ratio, Ave (Blank = 100)” value is listed as 60% in experiment [1] and 37% in experiment [2].
